Test results as given in PMC7855594 (Cell chemical biology, 2020).

Legend:
[1] = target: T1, USP7 (Homo sapiens, UniProt Q93009); type: biochemical
[2] = target: T1, USP7; experiment: purified enzyme biochemical assay; conditions: cited from earlier work
[3] = target: T1, USP7; type: biochemical; remark: listed apart in the source

T1 sequence (Q93009 whole entry): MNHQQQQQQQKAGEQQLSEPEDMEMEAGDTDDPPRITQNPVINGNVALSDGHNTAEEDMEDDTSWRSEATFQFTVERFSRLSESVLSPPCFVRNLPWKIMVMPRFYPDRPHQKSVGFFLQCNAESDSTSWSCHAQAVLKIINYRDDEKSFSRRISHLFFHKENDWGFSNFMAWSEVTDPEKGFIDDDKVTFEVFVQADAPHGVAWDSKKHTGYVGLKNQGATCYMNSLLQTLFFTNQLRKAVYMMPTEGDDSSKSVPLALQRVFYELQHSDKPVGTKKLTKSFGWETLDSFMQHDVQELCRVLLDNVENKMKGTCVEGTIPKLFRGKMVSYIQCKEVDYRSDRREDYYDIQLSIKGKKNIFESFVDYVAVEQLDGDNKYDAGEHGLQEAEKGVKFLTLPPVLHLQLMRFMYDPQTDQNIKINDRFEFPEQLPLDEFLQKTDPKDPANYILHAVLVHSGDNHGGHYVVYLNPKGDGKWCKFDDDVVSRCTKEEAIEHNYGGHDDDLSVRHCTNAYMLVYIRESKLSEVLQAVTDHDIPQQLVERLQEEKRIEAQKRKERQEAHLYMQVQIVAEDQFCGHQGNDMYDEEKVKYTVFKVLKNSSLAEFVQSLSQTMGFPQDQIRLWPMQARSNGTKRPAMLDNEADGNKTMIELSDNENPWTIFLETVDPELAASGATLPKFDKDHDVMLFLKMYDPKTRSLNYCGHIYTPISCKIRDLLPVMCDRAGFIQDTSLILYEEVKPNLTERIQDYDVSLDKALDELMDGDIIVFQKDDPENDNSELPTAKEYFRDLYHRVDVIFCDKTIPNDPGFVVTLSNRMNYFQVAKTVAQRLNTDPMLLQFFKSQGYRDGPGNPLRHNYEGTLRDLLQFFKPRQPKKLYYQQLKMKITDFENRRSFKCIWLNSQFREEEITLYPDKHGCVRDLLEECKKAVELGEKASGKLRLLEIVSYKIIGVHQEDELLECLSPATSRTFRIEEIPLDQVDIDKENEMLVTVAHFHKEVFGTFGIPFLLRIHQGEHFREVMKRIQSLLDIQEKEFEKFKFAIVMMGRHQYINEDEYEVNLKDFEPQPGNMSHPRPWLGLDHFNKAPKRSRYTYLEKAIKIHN

## C[C@H](CC(=O)N1CCC(O)(Cn2cnc3cc(NC(=O)CCN4CCN(C)CC4)ccc3c2=O)CC1)c1ccccc1 [XL188]
[1]
  % inhibition at 10 μM: 100

## C[C@@H](CC(=O)N1CCC(O)(Cn2cnc3cc(NC(=O)CCN4CCN(C)CC4)ccc3c2=O)CC1)c1ccccc1 [XL203C]
[2]
  IC50: 7 µM

## CN1CCN(CCC(=O)Nc2ccc3c(=O)n(CC4(O)CCN(C(=O)[C@@H](CCCNC(=O)c5ccc6c(Cl)c7c(nc6c5)CCCC7)Cc5ccccc5)CC4)cnc3c2)CC1 [XL177A]
[3]
  % inhibition at 1 μM: 100
